Results reported in patent US4450173A, “Compounds and method for treatment or prophylaxis of cardiac disorders” (American Hospital Supply Corporation, priority 1982, dated 1984).
Read-outs that look alike come from different tables or passages of the source.

Legend:
[1] = Disappearance in vitro in dog whole blood; type: in vitro ADME; conditions: 50 μg in 1 mL added to 1 mL dog whole blood, 37° C.; read-out: T1/2 Dog Whole Blood
Method: (§1) The rate of disappearance of a compound is expressed as the half-life (T1/2), which is the time period in which one-half of the initial amount of compound tested disappears. In each experiment, 1 mL of a solution containing 50 μg of the test compound was added to 1 mL of whole blood or 1 mL of a 33% (w/v) liver homogenate. […] At the designated time periods, the test mixtures were removed from the incubator and transferred to a 0° C. ice bath. Acetonitrile (2 mL) was immediately added and the mixtures were mixed to stop enzymatic hydrolysis. Zero time samples were prepared by adding 2 mL of acetonrile to denature the proteins prior to addition of the test compounds. […] The half life of each test compound was determined graphically by plotting the decrease in concentration as a function of time.

[2] = Disappearance in vitro in human whole blood; type: in vitro ADME; conditions: 50 μg in 1 mL added to 1 mL human whole blood, 37° C.; read-out: T1/2 Human Whole Blood
Method: as §1

[3] = Disappearance in vitro in dog liver homogenate; type: in vitro ADME; conditions: 50 μg in 1 mL added to 1 mL of 33% (w/v) dog liver homogenate, 37° C.; read-out: T1/2 Dog Liver Homogenate
Method: as §1

[4] = tested on: heart rate response to isoproterenol (β-receptor mediated tachycardia); test: Duration of β-blockade in vivo in anesthetized dogs, 40-minute infusion; set-up: species or system dog; conditions: for ED50: Canis lupus familiaris, iv, 40 min, read-out: Potency (mg/kg/40 min); for 80% Recovery Time: after 40-minute infusion, normalized to 50% inhibition, dogs
Method: (§2) The duration of β-blockade was determined in vivo using pentobartital-anesthetized dogs instrumented for measurement of heart rate using a Beckman® cardiotachometer triggered electronically by a phasic aortic blood pressure signal. Both vagus nerves were severed in the cervical region and the animals were mechanically ventilated. Two experimental designs were used. The first employed a 40-minute infusion of test compound and the second used a 3-hour infusion of test compound. In the 40-minute model, isoproterenol was infused into a foreleg vein at the rate of 0.5 μg/kg/min to induce a β-receptor mediated tachycardia. Various doses of test compound are then infused into a femoral vein over a period of 40 minutes. This infusion was then terminated and recovery from blockade was quantitated. […] This cumulative dose is expressed as mg/kg and is an indication of potency. The time period required for 80% recovery of heart rate response for each dose of test drug was also measured to quantitate duration of action. […] Test compounds were dissolved in 0.9% NaCl and infused at a rate of 0.05 mL/kg/min or less. In the 3-hour infusion model, bolus doses of isoproterenol (0.4 μg/kg) were used to assess the degree of β-blockade and recovery from β-blockade after termination of the infusion. The doses were spaced at 10-minute intervals and were given before, during and following the infusion of test compounds. The infusion rate was adjusted so that at the end of the 3-hour infusion period the degree of isoproterenol inhibition averaged about 50% of control.

[5] = tested on: guinea pig right atria and guinea pig tracheal strips; test: Cardioselectivity, KB tracheal/KB atrial; type: cell-based
Method: Several of the compounds of the present invention were tested for β-blocking activity in vitro using guinea pig right atria and guinea pig tracheal strips mounted in a tissue bath containing oxygenated (95% O2 -5% CO2) Krebs physiological salt solution at 37° C. Each tissue was suspended between a fixed glass rod and a Statham® Universal Transducer connected to a Beckman® recorder. Atria were allowed to beat spontaneously under a loading tension of approximately 0.5 gm. Intrinsic depressant for stimulant activity was determined for each compound by progressively increasing concentrations in the tissue baths at 60-minute intervals. Tissues were not washed between increments. […]. Changes in rate in response to isoproterenol were measured in the absence and presence of test compounds. Spiral strips of guinea pig trachea were suspended under 5 gm resting tension and incubated with phentolamine, tropolone and cocaine. Active tension was generated by addition of carbachol (3.0×10^-7 M) and decreases in tension in response to isoproterenol were quantitated. Cumulative concentration-response curves were produced with isoproterenol both before and after 60 minute incubation of test compounds with atria and trachea. The blocking potency of test compounds was estimated by computing pA2 values (-log KB) by the method of Furchgott, The Pharmacological Differentiation of Adrenergic Receptors, Ann. N.Y. Acad. Sci.; 139: 553-570 (1967). Comparison of blockade of right atrial and tracheal responses to isoproterenol permitted assessment of cardioselectivity of test compounds; […]. A ratio greater than one indicates cardioselectivity. […]

[6] = target: guinea pig tracheal strips (Cavia porcellus, UniProt Q8K4Z4); test: cell-based; type: cell-based; conditions: guinea pig trachea, carbachol tension, isoproterenol, 60 minute incubation, pA2 = -log KB
guinea pig tracheal strips, sequence (Q8K4Z4 whole entry): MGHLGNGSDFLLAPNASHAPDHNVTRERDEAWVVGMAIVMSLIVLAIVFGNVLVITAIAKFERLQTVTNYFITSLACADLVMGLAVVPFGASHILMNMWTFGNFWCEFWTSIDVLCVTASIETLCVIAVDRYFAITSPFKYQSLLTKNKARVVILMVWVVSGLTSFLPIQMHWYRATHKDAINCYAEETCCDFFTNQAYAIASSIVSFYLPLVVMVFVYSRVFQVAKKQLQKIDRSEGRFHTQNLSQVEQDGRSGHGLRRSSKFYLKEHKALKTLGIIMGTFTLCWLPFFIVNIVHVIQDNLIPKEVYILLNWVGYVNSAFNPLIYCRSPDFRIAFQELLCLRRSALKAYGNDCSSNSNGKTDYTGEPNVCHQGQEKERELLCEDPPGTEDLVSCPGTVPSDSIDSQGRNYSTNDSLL
Method: Each tissue was suspended between a fixed glass rod and a Statham® Universal Transducer connected to a Beckman® recorder. Atria were allowed to beat spontaneously under a loading tension of approximately 0.5 gm. Intrinsic depressant for stimulant activity was determined for each compound by progressively increasing concentrations in the tissue baths at 60-minute intervals. Tissues were not washed between increments. […] Changes in rate in response to isoproterenol were measured in the absence and presence of test compounds. Spiral strips of guinea pig trachea were suspended under 5 gm resting tension and incubated with phentolamine, tropolone and cocaine. Active tension was generated by addition of carbachol (3.0×10^-7 M) and decreases in tension in response to isoproterenol were quantitated. Cumulative concentration-response curves were produced with isoproterenol both before and after 60 minute incubation of test compounds with atria and trachea. The blocking potency of test compounds was estimated by computing pA2 values (-log KB) by the method of Furchgott, The Pharmacological Differentiation of Adrenergic Receptors, Ann. […] A ratio greater than one indicates cardioselectivity.

[7] = tested on: heart rate response to isoproterenol; test: Duration of β-blockade in vivo in anesthetized dogs, 3-hour infusion; set-up: species or system dog
Method: as §2

| Compound | half-life [1] [h] | half-life [2] [h] | half-life [3] [min] | ED50 [4] [mg/kg] | 80% Recovery Time [4] [min] | Cardioselectivity [5] | pA2 Trachea [6] | ED50 ([7]; Canis lupus familiaris, iv, 3-hour infusion, bolus isoproterenol 0.4 μg/kg, read-out: Potency (mg/kg/180 min)) [mg/kg] | 80% Recovery Time ([7]; after 3-hour infusion) [min] | % I (Percent inhibition of heart rate response to isoproterenol) ([7]; end of 3-hour infusion, bolus isoproterenol 0.4 μg/kg) [%] | Cardioselectivity ([5]; ratio KB tracheal/KB atrial, greater than one indicates cardioselectivity) |
| --- | --- | --- | --- | --- | --- | --- | --- | --- | --- | --- | --- |
| CCOC(=O)CCCCNCC(O)COc1ccccc1C (centres unmarked) [XII] | 2.53 ± 1.18 | 1.55 ± 0.5 | 8.8 ± 6 | 6.8 ± 3.7 | 11 ± 2 | 2.5 | 7.4 | – | – | – | – |
| CCOC(=O)CCNCC(O)COc1ccccc1C (centres unmarked) [X] | 3 | 2.58 ± 0.15 | 3 ± 1 | 0.99 ± 0.27 | 14 ± 2 | – | 7.4 | 6.8 | > 60 | 69 ± 5 | 1 |
